Source: patent publication US8299021B2, “Macrocyclic inhibitors of hepatitis C virus replication” (InterMune, Inc., priority 2005, dated 2012)
Read-outs that look alike come from different tables or passages of the source.

Legend:
[1] = tested on: HCV sub-genomic replicon GS4.3 (HuH-7 hepatoma cells); experiment: Quantitation by ELISA of neomycin phosphotransferase II (NPTII) in the HCV sub-genomic replicon, GS4.3; assay type: cell-based
Excerpt: Quantitation by ELISA of the Selectable Marker Protein, Neomycin Phosphotransferase II (NPTII) in the HCV Sub-Genomic Replicon, GS4.3
The HCV sub-genomic replicon (1377/NS3-3′, accession No. AJ242652), stably maintained in HuH-7 hepatoma cells, was created by Lohmann et al. Science 285: 110-113 (1999). The replicon-containing cell culture, designated GS4.3, was obtained from Dr. Christoph Seeger of the Institute for Cancer Research, Fox Chase Cancer Center, Philadelphia, Pa.
GS4.3 cells were maintained at 37° C., 5% CO2, in DMEM (Gibco 11965-092) supplemented with L-glutamine 200 mM (100×) (Gibco25030-081), non-essential amino acids (NEAA)(Biowhittaker 13-114E), heat-inactivated (HI) Fetal Bovine Serum(FBS)(Hyclone SH3007.03) and […] geneticin (G418)(Gibco 10131-035). Cells were sub-divided 1:3 or 4 every 2-3 days.
24 h prior to the assay, GS4.3 cells were collected, counted, and plated in 96-well plates (Costar 3585) at 7500 cells/well in 100 μl standard maintenance medium (above) and incubated in the conditions above. To initiate the assay, culture medium was removed, cells were washed once with PBS (Gibco 10010-023) and 90 μl Assay Medium (DMEM, L-glutamine, NEAA, 10% HI FBS, no G418) was added. Inhibitors were made as a 10× stock in Assay Medium, (3-fold dilutions from 10 μM to […] final concentration, final DMSO concentration 1%), 10 μl were added to duplicate wells, plates were rocked to mix, and incubated as above for 72 h.
An NPTII Elisa kit was obtained from AGDIA, Inc. (Compound direct ELISA test system for Neomycin Phosphotransferase II, PSP 73000/4800). Manufacturer's instructions were followed, with some modifications. 10×PEB-1 lysis buffer was made up to include 500 μM PMSF (Sigma P7626, 50 mM stock in isopropanol). After 72 h incubation, cells were washed once with PBS and 150 μlPEB-1 with PMSF was added per well. Plates were agitated vigorously for 15 minutes, room temperature, then frozen at −70° C. Plates were thawed, lysates were mixed thoroughly, and 100 μl were applied to an NPTII Elisa plate. A standard curve was made. Lysate from DMSO-treated control cells was pooled, serially diluted with PEB-1 with PMSF, and applied to duplicate wells of the ELISA plate, in a range of initial lysate amount of 150 ul-2.5 ul. In addition, 100 μl buffer alone was applied in duplicate as a blank. Plates were sealed and gently agitated at room temperature for 2 h. Following capture incubation, the plates were washed 5×300 μlwith PBS-T (0.5% Tween-20, PBS-T was supplied in the ELISA kit). For detection, a 1× dilution of enzyme conjugate diluent MRS-2 (5×) was made in PBS-T, into which 1:100 dilutions of enzyme conjugates A and B were added, as per instructions. Plates were resealed, and incubated with agitation, covered, room temperature, for 2 h. The washing was then repeated and 100 μlof room temperature TMB substrate was added. After approximately 30 minutes incubation (room temperature, agitation, covered), the reaction was stopped with 50 μl 3M sulfuric acid. Plates were read at 450 nm on a Molecular Devices Versamax plate reader.
Inhibitor effect was expressed as a percentage of DMSO-treated control signal, and inhibition curves were calculated using a 4-parameter equation: y=A+4B-A)/(1+((C/x)^13))), where C is half-maximal activity or EC50.

[2] = target: T1, NS3-NS4 protease (full-length NS3/NS4A-2) (Hepatitis C virus genotype 1a, UniProt P27958); experiment: NS3-NS4 protease assay / NS3 inhibition assay (RETS1 substrate, fluorescence kinetic read); assay type: biochemical; conditions: read-out: NS3-NS4 IC50
T1 construct: Recombinant E. coli or Baculovirus full-length NS3 was diluted to 3.33 μM with assay buffer; made in house; host or cells: E. coli or baculovirus (insect cells)
T1 sequence (P27958 1027-1657): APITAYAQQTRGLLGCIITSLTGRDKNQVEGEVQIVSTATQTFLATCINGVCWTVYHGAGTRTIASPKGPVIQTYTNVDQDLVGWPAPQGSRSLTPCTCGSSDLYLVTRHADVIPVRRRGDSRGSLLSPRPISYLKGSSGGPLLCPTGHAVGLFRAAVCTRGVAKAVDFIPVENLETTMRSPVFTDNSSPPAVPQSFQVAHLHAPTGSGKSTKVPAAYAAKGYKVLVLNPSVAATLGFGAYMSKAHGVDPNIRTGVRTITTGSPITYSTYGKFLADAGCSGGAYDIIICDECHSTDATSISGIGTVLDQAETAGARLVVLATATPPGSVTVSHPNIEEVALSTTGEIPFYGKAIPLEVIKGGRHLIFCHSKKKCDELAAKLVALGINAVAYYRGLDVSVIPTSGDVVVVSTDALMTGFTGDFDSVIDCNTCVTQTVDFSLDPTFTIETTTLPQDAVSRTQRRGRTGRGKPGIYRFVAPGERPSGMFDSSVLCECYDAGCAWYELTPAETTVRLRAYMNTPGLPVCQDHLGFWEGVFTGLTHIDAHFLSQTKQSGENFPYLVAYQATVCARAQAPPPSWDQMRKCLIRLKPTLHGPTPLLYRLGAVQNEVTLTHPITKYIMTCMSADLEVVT

[3] = Hepatitis C virus, Huh-7, GS4.3 cells, 72 h, read-out: Replicon EC50
[4] = GS4.3 cells, 72 h, read-out: Replicon EC50
[5] = Hepatitis C virus, Huh-7, Table 26, read-out: EC50

Compound | EC50 [1, 3] [µM] | IC50 [2] [µM] | EC50 [1, 4] [µM] | EC50 [1, 5] [µM]
CC(C)(C)OC(=O)N[C@H]1CCC(F)(F)CCCC[C@@H]2C[C@@]2(C(=O)NS(=O)(=O)C2CC2)NC(=O)[C@@H]2C[C@@H](OC(=O)N3Cc4cccc(F)c4C3)CN2C1=O [Compound 1010, (2R,6S,13aS,14aR,16aS,Z)-6-(tert-butoxycarbonylamino)-14a-(cyclopropylsulfonylcarbamoyl)-9,9-difluoro-5,16-dioxooctadecahydrocyclopropa (e) prrolo[1,2-a][1,4]diazacyclopentadecine 2-yl 4-fluoroisoindoline-2-carboxylate] | < 0.1 | < 0.1 | – | –
CC(C)(C)OC(=O)N[C@H]1CCCOC/C=C\[C@@H]2C[C@@]2(C(=O)NS(=O)(=O)C2CC2)NC(=O)[C@@H]2C[C@@H](OC(=O)N3Cc4cccc(F)c4C3)CN2C1=O [Compound 1021, (2R,6S,13aS,14aR,16aS,Z)-6-(tert-butoxycarbonylamino)-14a-(cyclopropylsulfonylcarbamoyl)-5,16-dioxo-2,3,5,6,7,8,9,11,13a,14,14a,15,16,16a-tetradecahydro-1H-cyclopropa(e)pyrrolo[2,1-i][1,7,10]oxadiazacyclopentadecin-2-yl 4-fluoroisoindoline-2-carboxylate] | – | < 10 | > 10 | –
CC(C)(C)OC(=O)N[C@H]1CCN(S(=O)(=O)c2ccccc2[N+](=O)[O-])CC/C=C\[C@@H]2C[C@@]2(C(=O)O)NC(=O)[C@@H]2C[C@@H](OC(=O)N3Cc4cccc(F)c4C3)CN2C1=O [Compound 1029] | < 10 | < 0.1 | – | –
CC(C)(C)OC(=O)N[C@H]1CCCCC/C=C\[C@@H]2C[C@@]2(C(=O)NS(=O)(=O)C2CC2)NC(=O)[C@@H]2CCCN2C1=O [Compound 2137, 1S,4R,6S,14S)tert-but 14-Cyclopropanesulfonylaminocarbonyl-2,15-dioxo-3,16-diaza-tricyclo[14.3.0.0^4,6]nonadec-7-ene-14-yl carbamate] | – | > 10 | – | > 10
O=C(CCC(F)(F)F)N[C@H]1CCCCC/C=C\[C@@H]2C[C@@]2(C(=O)NS(=O)(=O)C2CC2)NC(=O)[C@@H]2CCCN2C1=O [Compound 2139] | – | > 10 | – | < 1
(2R,6S,13aS,14aR,16aS,Z)-6-(tert-butoxycarbonylamino)-9,9-difluoro-2-(4-fluoroisoindoline-2-carbonyloxy)-5,16-dioxo-1,2,3,5,6,7,8,9,10,11,13 a,14,14a,15,16,16a-hexadecahydrocyclopropa(e)prrolo[1,2-a][1,4]diazacyclopentadecine-14a-carboxylic acid [Compound 1006] | – | < 0.1 | < 10 | –
